In ChEMBL document CHEMBL4406832, “Discovery of novel series of 2-substituted benzo[d]oxazol-5-amine derivatives as multi-target directed ligands for the treatment of Alzheimer's disease” (Eur J Med Chem, 2019):
pIC50, pKi: −log10 of the molar value. Calls of active or inactive are those of the source. The rule behind the calls is not given here.

Key:
[1] = biological target: T1, Acetylcholinesterase (Electrophorus electricus, UniProt O42275); assay: Inhibition of electric eel AChE using acetylthiocholine iodide as substrate preincubated with enzyme for 30 mins followed by substrate addition and measured for 1 min by DTNB reagent-based spectrophotometric analysis
[2] = Permeability of the compound in pH 7.4 PBS buffer incubated for 18 hrs by PAMPA-BBB assay
[3] = biological target: T2, Cholinesterase (Equus caballus, UniProt P81908); assay: Inhibition of equine serum BuChE using butyrylthiocholine iodide as substrate preincubated for 30 mins followed by substrate addition and measured for 1 min by DTNB reagent-based spectrophotometric analysis
[4] = Selectivity index, ratio of IC50 for equine serum BuChE to IC50 for electric eel AChE
[5] = biological target: Acetylcholinesterase (Electrophorus electricus) (UniProt O42275); assay: Non-competitive inhibition of electric eel AChE assessed as decrease in Km at 25 to 75 nM using varying levels of acetylthiocholine iodide as substrate measured every 2 mins for 10 mins by reciprocal Lineweaver-Burk plot analysis
[6] = system: Rattus norvegicus; assay: (§1) Improvement in learning and spatial memory in icv infused amyloid beta (1 to 42)-induced Wistar rat model of Alzheimer's disease assessed as increase in time spent in platform zone at 10 mg/kg, po administered daily for 7 days starting from 7 days post surgery and measured after 6 days by Morris water maze test; format: functional, organism-based
[7] = biological target: T2, Cholinesterase; assay: Non-competitive inhibition of equine serum BuChE using varying levels of butyrylthiocholine iodide as substrate measured at 2 mins interval for 10 mins by Dixon plot analysis
[8] = biological target: Cholinesterase (Equus caballus) (UniProt P81908); assay: Non-competitive inhibition of equine serum BuChE assessed as decrease in Km at 0.5 to 1.5 uM using varying levels of butyrylthiocholine iodide as substrate measured every 2 mins for 10 mins by reciprocal Lineweaver-Burk plot analysis
[9] = biological target: Acetylcholinesterase (Electrophorus electricus) (UniProt O42275); assay: Non-competitive inhibition of electric eel AChE assessed as decrease in Vmax at 25 to 75 nM using varying levels of acetylthiocholine iodide as substrate measured every 2 mins for 10 mins by reciprocal Lineweaver-Burk plot analysis
[10] = biological target: Cholinesterase (Equus caballus) (UniProt P81908); assay: Non-competitive inhibition of equine serum BuChE assessed as decrease in Vmax at 0.5 to 1.5 uM using varying levels of butyrylthiocholine iodide as substrate measured every 2 mins for 10 mins by reciprocal Lineweaver-Burk plot analysis
[11] = Acute toxicity in Wistar rat assessed as animal death measured for 72 hrs by OCED guideline method; settings: in vivo
[12] = Toxicity in Wistar rat assessed as change in body weight at 300 mg/kg measured for 72 hrs; format: organism-based; settings: in vivo
[13] = biological target: T3, Amyloid-beta precursor protein (Homo sapiens, UniProt P05067); assay: Inhibition of human amyloid beta (1 to 42) self-induced aggregation at 5 to 20 uM after 48 hrs by Thioflavin T based fluorometric assay
[14] = system: Rattus norvegicus; assay: as §1, with “reduction” for “increase”, “degeneration of neuron” for “time spent”, “hippocampal region” for “platform zone”, “H and E staining-based microscopic analysis” for “Morris water maze test”; format: functional, organism-based
[15] = system: SH-SY5Y; assay: Neuroprotective activity against amyloid beta (1 to 42)-induced cytotoxicity in human SH-SY5Y cells assessed as increase in cell viability at 10 to 20 uM measured after 72 hrs by MTT assay; format: functional, cell-based
[16] = system: Rattus norvegicus; assay: as §1, with “reduction” for “increase”, “disordered neuron” for “time spent”, “hippocampal region” for “platform zone”, “H and E staining-based microscopic analysis” for “Morris water maze test”; format: functional, organism-based
[17] = species on record: Rattus norvegicus; assay: Cognitive enhancing effect in scopolamine-induced Wistar rat model of amnesia assessed as increase in spontaneous alteration pretreated for 7 days followed by scopolamine challenge and measured after 30 mins by Y-maze test; format: functional, organism-based
[18] = system: Rattus norvegicus; assay: as §1, with “reduction” for “increase”, “escape latency” for “time spent in platform zone”, “daily for 5” for “after 6”; format: functional, organism-based
[19] = biological target: Acetylcholinesterase (Electrophorus electricus) (UniProt O42275); assay: Inhibition of electric eel AChE-induced amyloid beta (1 to 42) aggregation at 5 to 20 uM after 48 hrs by thioflavin T-based fluorometric assay
[20] = biological target: T1, Acetylcholinesterase; assay: Non-competitive inhibition of electric eel AChE using varying levels of acetylthiocholine iodide as substrate measured at 2 mins interval for 10 mins by Dixon plot analysis
[21] = system: Rattus norvegicus; assay: as §1, with “number of” for “time spent in”, “crossing” for “zone”; format: functional, organism-based
[22] = system: SH-SY5Y; assay: Neuroprotective activity against amyloid beta (1 to 42)-induced cytotoxicity in human SH-SY5Y cells assessed as increase in cell viability at 40 to 80 uM measured after 72 hrs by MTT assay; format: functional, cell-based
[23] = species on record: Rattus norvegicus; assay: Ex vivo inhibition of AChE in brain of scopolamine-induced Wistar rat model of amnesia pretreated for 7 days followed by scopolamine challenge and measured after 30 mins using acetylthiocholine iodide as substrate by Ellman's method; format: functional, organism-based
[24] = biological target: T3, Amyloid-beta precursor protein; assay: Displacement of [125I]IMPY from human amyloid beta(1-42) aggregates incubated for 3 hrs by gamma counting analysis
[25] = system: Rattus norvegicus; assay: as §1, with “number of” for “time spent in”, “crossing” for “zone”, “5” for “10”; format: functional, organism-based
[26] = system: Rattus norvegicus; assay: Cognitive enhancing effect in scopolamine-induced Wistar rat model of amnesia assessed as increase in spontaneous alteration at 5 mg/kg pretreated for 7 days followed by scopolamine challenge and measured after 30 mins by Y-maze test; format: functional, organism-based
[27] = system: Rattus norvegicus; assay: (§2) Improvement in learning and spatial memory in icv infused amyloid beta (1 to 42)-induced Wistar rat model of Alzheimer's disease assessed as reduction in disordered neuron in hippocampal region at 5 mg/kg, po administered daily for 7 days starting from 7 days post surgery and measured after 6 days by H and E staining-based microscopic analysis; format: functional, organism-based
[28] = system: Rattus norvegicus; assay: as §1, with “reduction” for “increase”, “escape latency” for “time spent in platform zone”, “5” for “10”, “daily for 5” for “after 6”; format: functional, organism-based
[29] = system: Rattus norvegicus; assay: as §1, with “5” for “10”; format: functional, organism-based
[30] = system: Rattus norvegicus; assay: as §2, with “degeneration of” for “disordered”; format: functional, organism-based

T2 sequence (P81908 whole entry): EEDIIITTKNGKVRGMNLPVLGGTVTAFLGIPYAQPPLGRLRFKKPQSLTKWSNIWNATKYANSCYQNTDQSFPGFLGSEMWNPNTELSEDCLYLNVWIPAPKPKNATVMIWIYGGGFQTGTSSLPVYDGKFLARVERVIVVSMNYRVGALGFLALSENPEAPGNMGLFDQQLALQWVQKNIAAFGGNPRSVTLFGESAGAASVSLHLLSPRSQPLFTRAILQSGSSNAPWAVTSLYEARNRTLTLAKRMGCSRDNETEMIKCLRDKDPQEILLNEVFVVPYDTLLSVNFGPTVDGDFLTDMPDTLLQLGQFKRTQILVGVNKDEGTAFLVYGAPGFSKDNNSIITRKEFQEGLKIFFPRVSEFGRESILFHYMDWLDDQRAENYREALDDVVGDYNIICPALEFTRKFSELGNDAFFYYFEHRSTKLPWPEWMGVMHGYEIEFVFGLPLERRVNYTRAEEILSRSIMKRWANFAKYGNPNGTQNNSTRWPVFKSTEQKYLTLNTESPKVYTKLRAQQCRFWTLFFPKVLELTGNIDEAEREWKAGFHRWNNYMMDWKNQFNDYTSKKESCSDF
T1 sequence (O42275 whole entry): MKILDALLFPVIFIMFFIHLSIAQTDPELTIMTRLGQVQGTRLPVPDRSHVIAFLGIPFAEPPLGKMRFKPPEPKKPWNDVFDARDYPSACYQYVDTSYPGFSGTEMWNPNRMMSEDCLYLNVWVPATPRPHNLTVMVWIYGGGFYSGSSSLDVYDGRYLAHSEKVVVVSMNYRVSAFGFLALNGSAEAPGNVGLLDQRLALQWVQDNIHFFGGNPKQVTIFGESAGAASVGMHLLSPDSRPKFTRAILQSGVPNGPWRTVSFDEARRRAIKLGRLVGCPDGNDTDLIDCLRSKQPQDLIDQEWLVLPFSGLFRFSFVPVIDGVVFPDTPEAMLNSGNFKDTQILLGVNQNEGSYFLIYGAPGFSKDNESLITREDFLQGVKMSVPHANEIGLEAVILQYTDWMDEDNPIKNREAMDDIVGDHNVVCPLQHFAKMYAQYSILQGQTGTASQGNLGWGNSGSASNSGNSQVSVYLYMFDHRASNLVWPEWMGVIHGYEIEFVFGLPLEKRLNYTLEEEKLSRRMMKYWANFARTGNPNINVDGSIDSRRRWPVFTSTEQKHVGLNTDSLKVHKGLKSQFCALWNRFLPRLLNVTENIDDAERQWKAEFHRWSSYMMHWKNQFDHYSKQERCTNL
Acetylcholinesterase (Electrophorus electricus), sequence (O42275 24-633 limits assumed): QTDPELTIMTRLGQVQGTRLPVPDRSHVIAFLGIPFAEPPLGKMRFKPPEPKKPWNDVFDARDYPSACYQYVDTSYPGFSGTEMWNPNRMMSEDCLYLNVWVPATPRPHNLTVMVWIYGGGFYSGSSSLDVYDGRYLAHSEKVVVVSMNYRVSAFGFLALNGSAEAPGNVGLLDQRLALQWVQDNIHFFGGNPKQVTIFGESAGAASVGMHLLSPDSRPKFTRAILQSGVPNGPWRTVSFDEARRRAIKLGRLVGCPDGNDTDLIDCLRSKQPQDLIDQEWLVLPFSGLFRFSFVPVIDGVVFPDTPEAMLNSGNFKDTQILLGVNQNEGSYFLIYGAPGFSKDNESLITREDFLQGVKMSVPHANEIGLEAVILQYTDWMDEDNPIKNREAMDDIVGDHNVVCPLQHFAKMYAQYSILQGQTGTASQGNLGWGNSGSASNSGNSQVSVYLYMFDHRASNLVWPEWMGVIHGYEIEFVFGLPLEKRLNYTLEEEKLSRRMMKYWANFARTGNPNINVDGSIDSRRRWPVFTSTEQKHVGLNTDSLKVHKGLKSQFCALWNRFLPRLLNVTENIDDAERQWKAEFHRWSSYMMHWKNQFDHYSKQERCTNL
T3 sequence (P05067 whole entry): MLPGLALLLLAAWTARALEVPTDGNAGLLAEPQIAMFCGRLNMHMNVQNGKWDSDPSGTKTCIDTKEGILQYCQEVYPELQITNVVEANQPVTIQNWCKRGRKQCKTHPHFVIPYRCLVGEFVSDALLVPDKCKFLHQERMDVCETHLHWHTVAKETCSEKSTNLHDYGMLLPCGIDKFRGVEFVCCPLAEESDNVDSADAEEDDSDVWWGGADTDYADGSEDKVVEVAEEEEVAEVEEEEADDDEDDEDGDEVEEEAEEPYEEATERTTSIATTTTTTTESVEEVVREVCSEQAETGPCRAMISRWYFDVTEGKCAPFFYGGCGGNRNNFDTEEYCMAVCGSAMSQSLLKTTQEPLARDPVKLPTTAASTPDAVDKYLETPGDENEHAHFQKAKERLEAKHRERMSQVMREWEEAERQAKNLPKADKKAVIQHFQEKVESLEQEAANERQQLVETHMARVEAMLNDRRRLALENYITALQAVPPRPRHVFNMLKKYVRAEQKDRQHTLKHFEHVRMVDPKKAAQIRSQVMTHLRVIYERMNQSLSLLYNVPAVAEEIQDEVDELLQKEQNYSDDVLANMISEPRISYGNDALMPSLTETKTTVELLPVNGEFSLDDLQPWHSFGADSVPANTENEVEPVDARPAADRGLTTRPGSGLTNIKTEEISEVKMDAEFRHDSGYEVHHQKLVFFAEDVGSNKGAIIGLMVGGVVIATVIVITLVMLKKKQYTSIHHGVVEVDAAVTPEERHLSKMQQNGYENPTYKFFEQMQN
Cholinesterase (Equus caballus), sequence (P81908 whole entry): as the sequence (P81908 whole entry) above

Row | SMILES | pIC50 [1] | Papp at 18 h [2] [×10⁻⁶ cm/s] | pIC50 [3] | Ratio IC50 [4] | other results
1 | COc1cc2c(cc1OC)C(=O)C(Cc1cc[n+](Cc3ccccc3)cc1Br)C2 (configuration not stated) | 9.44 | – | – | – | –
2 | Nc1ccc2oc(N3CCN(c4ccccc4)CC3)nc2c1 | 5.68 | 10.3 | 4.78 | 8 | –
3 | C#CCN(Cc1ccc2cccc(O)c2n1)C(C#N)CCC1CCN(Cc2ccccc2)CC1 (configuration not stated) | 7.54 | – | – | – | –
4 | Nc1ccc2oc(N3CCN(CCc4ccccc4)CC3)nc2c1 | 6.41 | 13.4 | 6.02 | 2.4 | –
5 | COc1ccc(N2CCN(c3nc4cc(N)ccc4o3)CC2)cc1 | 5.68 | 10.5 | 4.89 | 6.1 | –
6 | Cc1ccc(N2CCN(c3nc4cc(N)ccc4o3)CC2)cc1 | 5.38 | 10.4 | 5.05 | 2.1 | –
7 | COc1ccc(Cl)cc1C(=O)N1CCN(c2nc3cc(N)ccc3o2)CC1 | 6.49 | 8.82 | 5.86 | 4.2 | –
8 | Nc1ccc2oc(N3CCN(C(=O)c4ccc(Br)cc4)CC3)nc2c1 | 7.28 | 10.8 | 5.96 | 20.8 | inhibition [5]: Active; Activity [6]: Active; pKi [7]: 6.07; inhibition [8]: Active; inhibition [9]: Active; inhibition [10]: Active; Activity [11]: Toxic; Activity [12]: Toxic; inhibition [13]: Active; Activity [14]: Active; Activity [15]: inactive; Activity [16]: Active; Activity [17]: Dose-dependent effect; Activity [18]: Active; inhibition [19]: Active; pKi [20]: 7.52; Activity [21]: Active; Activity [22]: Active; inhibition [23]: Dose-dependent effect
9 | Nc1ccc2oc(N3CCN(C(=O)c4cccc(F)c4)CC3)nc2c1 | 6.64 | 9.51 | 5.26 | 23.9 | –
10 | Nc1ccc2oc(N3CCN(C(=O)c4ccccc4F)CC3)nc2c1 | 6.47 | 9.55 | 5.08 | 24.9 | –
11 | COc1ccc(CN2CCN(c3nc4cc(N)ccc4o3)CC2)cc1 | 6.13 | 9.49 | 5.20 | 8.4 | –
12 | Nc1ccc2oc(N3CCN(C(=O)c4cccc(Cl)c4)CC3)nc2c1 | 6.62 | 10.4 | 5.34 | 18.9 | –
13 | Nc1ccc2oc(N3CCN(c4ccc(F)cc4)CC3)nc2c1 | 5.84 | 10.7 | 5.19 | 4.4 | –
14 | Nc1ccc2oc(N3CCOCC3)nc2c1 | 5.15 | 7.44 | 4.49 | 4.5 | –
15 | Nc1ccc2oc(N3CCN(c4ccc(Br)cc4)CC3)nc2c1 | 5.98 | 10.5 | 5.06 | 8.3 | –
16 | COc1ccccc1C(=O)N1CCN(c2nc3cc(N)ccc3o2)CC1 | 6.03 | 9.21 | 5.13 | 7.9 | –
17 | Nc1ccc2oc(N3CCCCC3)nc2c1 | 5.25 | – | 4.62 | – | –
18 | Nc1ccc2oc(N3CCN(c4ccccn4)CC3)nc2c1 | 5.48 | 9.44 | 4.82 | 4.5 | –
19 | Nc1ccc2oc(N3CCN(C(=O)c4ccc(F)cc4)CC3)nc2c1 | 7.14 | 9.67 | 6.09 | 11.1 | –

Row | SMILES | pIC50 [1] | Papp at 18 h [2] [×10⁻⁶ cm/s] | pIC50 [3] | Ratio IC50 [4] | other results
20 | Nc1ccc2oc(NC3CCN(Cc4ccccc4)CC3)nc2c1 | 6.25 | 9.47 | 5.64 | 4 | –
21 | CN(C)c1ccc(-c2nc3cc([125I])ccc3o2)cn1 | – | – | – | – | pKi [24]: 8.16
22 | Cc1ccc(CN2CCN(c3nc4cc(N)ccc4o3)CC2)cc1 | 6.09 | 10.6 | 5.29 | 6.4 | –
23 | Nc1ccc2oc(N3CCN(Cc4ccc(Cl)cc4)CC3)nc2c1 | 6.13 | 10.7 | 5.41 | 5.1 | –
24 | Nc1ccc2oc(N3CCN(c4ccc(Cl)cc4)CC3)nc2c1 | 5.71 | 10.6 | 4.95 | 5.6 | –
25 | COc1cc2c(cc1OC)C(=O)C(CC1CCN(Cc3ccccc3)CC1)C2 (configuration not stated) | – | – | – | – | Activity [25]: Active; Activity [26]: Active; Activity [27]: Active; Activity [28]: Active; Activity [15]: Active; Activity [29]: Active; Activity [30]: Active
26 | Nc1ccc2oc(N3CCN(C(=O)c4ccccc4Cl)CC3)nc2c1 | 6.25 | 10.3 | 5.31 | 8.6 | –
27 | COc1cccc(C(=O)N2CCN(c3nc4cc(N)ccc4o3)CC2)c1 | 6.26 | 9.54 | 4.93 | 21.3 | –
28 | COc1ccc(C(=O)N2CCN(c3nc4cc(N)ccc4o3)CC2)cc1 | 6.56 | 9.71 | 5.14 | 26.6 | –
29 | CC(C)c1ccc(CN2CCN(c3nc4cc(N)ccc4o3)CC2)cc1 | 6.03 | 11.6 | 4.95 | 11.9 | –
30 | Nc1ccc2oc(N3CCN(C(=O)c4ccc5c(c4)OCO5)CC3)nc2c1 | 6.21 | 9.64 | 5.82 | 2.4 | –
31 | Nc1ccc2oc(N3CCN(C(=O)c4ccccc4)CC3)nc2c1 | 6.10 | – | 5.22 | – | –
32 | Nc1ccc2oc(N3CCN(C(=O)c4ccc(Cl)cc4)CC3)nc2c1 | 6.96 | 10.4 | 5.48 | 30.4 | –
33 | Nc1ccc2oc(N3CCN(Cc4ccccc4)CC3)nc2c1 | 6.04 | 10.2 | 5.17 | 7.3 | –
34 | Nc1ccc2oc(N3CCN(Cc4ccc(F)cc4)CC3)nc2c1 | 6.28 | 10.5 | 5.51 | 5.9 | –
35 | Nc1ccc2oc(N3CCN(C(=O)c4ccccc4Br)CC3)nc2c1 | 6.35 | 10.6 | 5.21 | 13.9 | –
36 | Nc1ccc2oc(N3CCN(C(=O)c4cccc(Br)c4)CC3)nc2c1 | 6.79 | 10.5 | 5.57 | 16.4 | –
37 | Nc1ccc2oc(N3CCN(Cc4ccc(Br)cc4)CC3)nc2c1 | 6.42 | 11.3 | 5.53 | 7.8 | –
